# Laboratory results published in US20220112187A1, “PYRAZOLOPYRIDINE AMINE COMPOUNDS FOR THE TREATMENT OF AUTOIMMUNE DISEASE” (Hoffmann-La Roche Inc., priority 2018, published 2022).
# Biological target: T1, human TLR8 (Homo sapiens, UniProt Q9NR97)
# T1 sequence (Q9NR97 27-1041): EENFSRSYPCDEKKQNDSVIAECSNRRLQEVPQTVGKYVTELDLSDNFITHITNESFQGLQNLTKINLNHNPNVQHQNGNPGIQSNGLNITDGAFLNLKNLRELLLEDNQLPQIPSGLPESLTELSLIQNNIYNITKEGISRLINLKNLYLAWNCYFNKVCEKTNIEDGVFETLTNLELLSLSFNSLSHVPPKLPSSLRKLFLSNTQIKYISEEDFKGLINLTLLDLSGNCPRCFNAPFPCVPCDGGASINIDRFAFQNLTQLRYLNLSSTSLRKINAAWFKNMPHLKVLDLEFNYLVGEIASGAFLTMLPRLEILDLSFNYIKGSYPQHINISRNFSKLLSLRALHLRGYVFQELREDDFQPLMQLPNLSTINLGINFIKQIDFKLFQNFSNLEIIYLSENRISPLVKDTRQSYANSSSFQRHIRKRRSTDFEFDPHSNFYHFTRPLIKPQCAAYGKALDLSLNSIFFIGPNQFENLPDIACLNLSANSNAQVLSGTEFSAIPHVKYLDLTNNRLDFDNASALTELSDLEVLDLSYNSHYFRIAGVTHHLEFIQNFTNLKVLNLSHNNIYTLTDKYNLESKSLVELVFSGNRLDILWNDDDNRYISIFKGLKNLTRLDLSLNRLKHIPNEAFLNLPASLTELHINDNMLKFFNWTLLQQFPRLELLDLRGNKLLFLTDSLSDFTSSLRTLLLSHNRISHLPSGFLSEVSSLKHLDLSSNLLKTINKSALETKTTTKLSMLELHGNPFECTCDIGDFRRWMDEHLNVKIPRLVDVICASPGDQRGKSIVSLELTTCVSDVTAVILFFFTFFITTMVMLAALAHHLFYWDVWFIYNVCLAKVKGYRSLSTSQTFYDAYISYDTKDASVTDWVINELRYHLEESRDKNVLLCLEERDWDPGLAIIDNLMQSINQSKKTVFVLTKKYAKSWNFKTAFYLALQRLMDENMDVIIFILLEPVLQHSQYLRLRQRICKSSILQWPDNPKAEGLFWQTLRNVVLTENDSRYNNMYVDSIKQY
# Assay: HEK293-Blue-hTLR-8 cells assay (SEAP reporter, R848 stimulation)
# Format: cell-based
# Settings: HEK293-Blue-hTLR8 cells, R848 ligand, 20 hrs incubation
# From the text: A stable HEK293-Blue-hTLR-8 cell line was purchased from InvivoGen (Cat. #: hkb-htlr8, San Diego, Calif., USA). These cells were originally designed for studying the stimulation of human TLR8 by monitoring the activation of NF-κB. A SEAP (secreted embryonic alkaline phosphatase) reporter gene was placed under the control of the IFN-β minimal promoter fused to five NF-κB and AP-1-binding sites. The SEAP was induced by activating NF-κB and AP-1 via stimulating HEK-Blue hTLR8 cells with TLR8 ligands. Therefore the reporter expression was declined by TLR8 antagonist under the stimulation of a ligand, such as R848, for incubation of 20 hrs. The cell culture supernatant SEAP reporter activity was determined using QUANTI-Blue™ kit (Cat. #: rep-qb1, Invivogen, San Diego, Ca, USA) at a wavelength of 640 nm, a detection medium that turns purple or blue in the presence of alkaline phosphatase.
# HEK293-Blue-hTLR8 cells were incubated at a density of 250,000˜450,000 cells/mL in a volume of 170 μL in a 96-well plate in Dulbecco's Modified Eagle's medium (DMEM) containing 4.5 g/L glucose, 50 U/mL penicillin, […], […], 2 mM L-glutamine, 10% (v/v) heat-inactivated fetal bovine serum with addition of 20 μL test compound in a serial dilution in the presence of final DMSO at 1% and 10 μL of 60 uM R848 in above DMEM, perform incubation under 37° C. in a CO2 incubator for 20 hrs. Then 20 μL of the supernatant from each well was incubated with 180 μL Quanti-blue substrate solution at 37° C. for 2 hrs and the absorbance was read at 620˜655 nm using a spectrophotometer. The signalling pathway that TLR8 activation leads to downstream NF-κB activation has been widely accepted, and therefore similar reporter assay was modified for evaluating TLR8 antagonist.
row,Structure (SMILES),IC50 [nM]
1,"C[C@@H]1CN(c2ccc(C#N)n3nccc23)C[C@H](CN2C3CNCC2COC3)O1 [Example 57, 4-[(2R,6S)-2-methyl-6-(3-oxa-7,9-diazabicyclo[3.3.1]nonan-9-ylmethyl)morpholin-4-yl]pyrazolo[1,5-a]pyridine-7-carbonitrile]",62
2,"C[C@@H]1CN(c2ccc(C#N)n3nccc23)C[C@H](CN2C3COCC2CC(N)C3)O1 (stereo partly drawn) [Example 58, 4-[(2S,6R)-2-[(7-amino-3-oxa-9-azabicyclo[3.3.1]nonan-9-yl)methyl]-6-methyl-morpholin-4-yl]pyrazolo[1,5-a]pyridine-7-carbonitrile]",58
3,"C[C@@H]1CN(c2ccc(C#N)n3nccc23)C[C@H](CN2CCCC3CNCC32)O1 (stereo partly drawn) [Example 61, 4-[(2S,6R)-2-(2,3,4,4a,5,6,7,7a-octahydropyrrolo[3,4-b]pyridin-1-ylmethyl)-6-methyl-morpholin-4-yl]pyrazolo[1,5-a]pyridine-7-carbonitrile]",300
4,"C[C@@H]1CN(c2ccc(C#N)n3nccc23)C[C@H](CN2CCC[C@@H]3NCCC32)O1 (stereo partly drawn) [Example 63, 4-[(2R,6S)-2-methyl-6-[[cis-(3aS,7aS)-1,2,3,3a,5,6,7,7a-octahydropyrrolo[3,2-b]pyridin-4-yl]methyl]morpholin-4-yl]pyrazolo[1,5-a]pyridine-7-carbonitrile]",44
5,"C[C@@H]1CN(c2ccc(C#N)n3nccc23)C[C@H](CN2CCCC3NCCCC32)O1 (stereo partly drawn) [Example 64, 4-[(2S,6R)-2-(3,4,4a,5,6,7,8,8a-octahydro-2H-1,5-naphthyridin-1-ylmethyl)-6-methyl-morpholin-4-yl]pyrazolo[1,5-a]pyridine-7-carbonitrile]",120
6,"C[C@@H]1CN(c2ccc(C#N)n3nccc23)C[C@H](CN2C3CCCC2CC(N)C3)O1 (stereo partly drawn) [Example 65, Endo-4-[(2S,6R)-2-[(3-amino-9-azabicyclo[3.3.1]nonan-9-yl)methyl]-6-methyl-morpholin-4-yl]pyrazolo[1,5-a]pyridine-7-carbonitrile]",64
7,"C[C@@H]1CN(c2ccc(C#N)n3nccc23)C[C@H](CN2C3CCCC2CC(N)C3)O1 (stereo partly drawn) [Example 66, Exo-4-[(2S,6R)-2-[(3-amino-9-azabicyclo[3.3.1]nonan-9-yl)methyl]-6-methyl-morpholin-4-yl]pyrazolo[1,5-a]pyridine-7-carbonitrile]",140
8,"C[C@@H]1CN(c2ccc(C#N)n3ncc(F)c23)C[C@H](CN2CCCC3(CCNCC3)C2)O1 [Example 67, 4-[(2S,6R)-2-(2,9-diazaspiro[5.5]undecan-2-ylmethyl)-6-methyl-morpholin-4-yl]-3-fluoro-pyrazolo[1,5-a]pyridine-7-carbonitrile]",38
9,"C[C@@H]1CN(c2ccc(C#N)n3ncc(F)c23)C[C@H](CN2CCCC3(CCNC3)C2)O1 (stereo partly drawn) [Example 68, 3-fluoro-4-[(2S,6R)-2-(2,7-diazaspiro[4.5]decan-7-ylmethyl)-6-methyl-morpholin-4-yl]pyrazolo[1,5-a]pyridine-7-carbonitrile]",11
10,"C[C@@H]1CN(c2ccc(C#N)n3ncc(F)c23)C[C@H](CN2CCC3(CCCNC3)C2)O1 (stereo partly drawn) [Example 69, 3-fluoro-4-[(2S,6R)-2-(2,9-diazaspiro[4.5]decan-2-ylmethyl)-6-methyl-morpholin-4-yl]pyrazolo[1,5-a]pyridine-7-carbonitrile]",26

# The remaining lines, values ahead:
row,IC50 [nM],Structure (SMILES)
1,53,"C[C@@H]1CN(c2ccc(C#N)n3nccc23)C[C@H](CN2CC3CNCCC32)O1 (stereo partly drawn) [Example 52, 4-[(2S,6R)-2-(3,7-diazabicyclo[4.2.0]octan-7-ylmethyl)-6-methyl-morpholin-4-yl]pyrazolo[1,5-a]pyridine-7-carbonitrile]"
2,29,"C[C@@H]1CN(c2ccc(C#N)n3nccc23)C[C@H](CN2CCC3(CCCN3)CC2)O1 [Example 53, 4-[(2S,6R)-2-(1,8-diazaspiro[4.5]decan-8-ylmethyl)-6-methyl-morpholin-4-yl]pyrazolo[1,5-a]pyridine-7-carbonitrile]"
3,42,"C[C@@H]1CN(c2ccc(C#N)n3nccc23)C[C@H](CN2CCC(N3CCCC3)CC2)O1 [Example 54, 4-[(2R,6S)-2-methyl-6-[(4-pyrrolidin-1-yl-1-piperidyl)methyl]morpholin-4-yl]pyrazolo[1,5-a]pyridine-7-carbonitrile]"
4,870,"C[C@@H]1CN(c2ccc(C#N)n3nccc23)C[C@H](CN2CCC23CNC3)O1 [Example 55, 4-[(2S,6R)-2-(1,6-diazaspiro[3.3]heptan-1-ylmethyl)-6-methyl-morpholin-4-yl]pyrazolo[1,5-a]pyridine-7-carbonitrile]"
5,480,"C[C@@H]1CN(c2ccc(C#N)n3nccc23)C[C@H](CN2CC3CCNCC32)O1 (stereo partly drawn) [Example 56, 4-[(2S,6R)-2-(3,8-diazabicyclo[4.2.0]octan-8-ylmethyl)-6-methyl-morpholin-4-yl]pyrazolo[1,5-a]pyridine-7-carbonitrile]"
6,6,"C[C@@H]1CN(c2ccc(C#N)n3nccc23)C[C@H](CN2CCNCC2Cc2ccccc2)O1 (stereo partly drawn) [Example 59, 4-[(2S,6R)-2-[(2-benzylpiperazin-1-yl)methyl]-6-methyl-morpholin-4-yl]pyrazolo[1,5-a]pyridine-7-carbonitrile]"
7,96,"C[C@@H]1CN(c2ccc(C#N)n3nccc23)C[C@H](CN2CCC3(CC2)CNCCO3)O1 [Example 60, 4-[(2R,6S)-2-methyl-6-(1-oxa-4,9-diazaspiro[5.5]undecan-9-ylmethyl)morpholin-4-yl]pyrazolo[1,5-a]pyridine-7-carbonitrile]"
8,260,"C[C@@H]1CN(c2ccc(C#N)n3nccc23)C[C@H](CN2CC[C@@H]3CNCC32)O1 (stereo partly drawn) [Example 62, 4-[(2R,6S)-2-methyl-6-[[cis-(3aR,6aR)-3,3a,4,5,6,6a-hexahydro-2H-pyrrolo[3,4-b]pyrrol-1-yl]methyl]morpholin-4-yl]pyrazolo[1,5-a]pyridine-7-carbonitrile]"
9,120,"C[C@@H]1CN(c2ccc(C#N)n3nccc23)C[C@H](CN2CCC3NCC3C2)O1 (stereo partly drawn) [Example 70, 4-[(2S,6R)-2-(3,7-diazabicyclo[4.2.0]octan-3-ylmethyl)-6-methyl-morpholin-4-yl]pyrazolo[1,5-a]pyridine-7-carbonitrile]"
10,55,"C[C@@H]1CN(c2ccc(C#N)n3nccc23)C[C@H](CN2CCOC3(CCNCC3)C2)O1 [Example 71, 4-[(2R,6S)-2-methyl-6-(1-oxa-4,9-diazaspiro[5.5]undecan-4-ylmethyl)morpholin-4-yl]pyrazolo[1,5-a]pyridine-7-carbonitrile]"
11,47,"C[C@@H]1CN(c2ccc(C#N)n3nccc23)C[C@H](CN2CCC(N)(c3ccccc3)CC2)O1 [Example 73, 4-[(2S,6R)-2-[(4-amino-4-phenyl-1-piperidyl)methyl]-6-methyl-morpholin-4-yl]pyrazolo[1,5-a]pyridine-7-carbonitrile]"
12,39,"C[C@@H]1CN(c2ccc(C#N)n3nccc23)C[C@H](CN2CC[C@H](N)[C@H](C)C2)O1 [Example 74, 4-[(2S,6R)-2-[[(3R,4S)-4-amino-3-methyl-1-piperidyl]methyl]-6-methyl-morpholin-4-yl]pyrazolo[1,5-a]pyridine-7-carbonitrile]"
13,340,"C[C@@H]1CN(c2ccc(C#N)n3nccc23)C[C@H](CN2CCC3(CN(C)CCO3)C2)O1 (stereo partly drawn) [Example 76, 4-[(2R,6S)-2-methyl-6-[(9-methyl-6-oxa-2,9-diazaspiro[4.5]decan-2-yl)methyl]morpholin-4-yl]pyrazolo[1,5-a]pyridine-7-carbonitrile]"
